Test system: Ad5
Assay: Ad5 genome replication assay (cell-based QPCR) in A549 cells
Conditions: Human adenovirus sp., A549, 72 h, read-out: Ad5 qPCR EC50 (μM)
Protocol: Compounds of the present invention were tested for potency against Ad5 in an Ad5 genome replication assay, a cell-based QPCR assay of Ad5 genome replication in A549 cells, a human lung carcinoma cell line. Serotype of human Ad5, used in this replication assay can also replicate in a NZW rabbit model of adenoviral ocular keratitis.
EC50 values (μM) for inhibition of adenoviral replication were determined by QPCR. Briefly, 10,000 cultured A549 cells were inoculated with 25,000 pfu/well for 3 hrs in 2% FBS F12-K A549 culture media. Following inoculation, A549 cells were treated with log unit dilutions of compound of Formula I (˜10 μM thru˜10 pM) in 10% FBS F12-K culture media with 0.3% DMSO for an additional 3 days. Cell viability was assessed with Alamar Blue (10 μl/well for 2 hrs; fluorescence Ex353; Em595 nm). Plates were washed 3 times with 125 μl PBS, cell lysates were prepared for QPCR analysis using Cells to SNP kit (Life Technologies). Ad5 genome levels per cell were determined with RNaseP and Ad5 hexon Taqman Assays (Life Technologies). EC50, the concentration that inhibited Ad5 genome replication formation by 50%, was estimated from plots of Ad5 genomes/cell vs. compound concentration.

SMILES | EC50 [µM]
CC(C)CC1c2[nH]c3ccc(Cl)cc3c2CCN1C(=O)CCC1CCN(CC(F)F)CC1 (stereo not shown) [Compound 46] | 0.1 to 1
O=C(CCC1CCCCC1)N1CCc2c([nH]c3ccc(Cl)cc23)C1CN1CCCCC1 (stereo not shown) [Compound 80] | > 1
CC(C)CC1c2[nH]c3ccc(Cl)cc3c2CCN1CCCc1ccccc1 (stereo not shown) [Compound 109] | 0.1 to 1
CC(C)C[C@H]1c2[nH]c3ccc(Cl)cc3c2CCN1C(=O)CCN1CCC(F)CC1 [Compound 28, (S)-1-(6-chloro-1-isobutyl-3,4-dihydro-1H-pyrido[3,4-b]indol-2(9H)-yl)-3-(4-fluoropiperidin-1-yl)propan-1-one] | 0.1 to 1
CC(C)CC1c2[nH]c3ccc(Cl)cc3c2CCN1C(=O)COC1CCN(C2CC2)CC1 (stereo not shown) [Compound 69] | > 1
O=C(CCN1CCC(F)CC1)N1CCc2c([nH]c3ccc(Cl)cc23)C1CC1CCCC1 (stereo not shown) [Compound 27] | 0.1 to 1
O=C(CCC1CCCCC1)N1CCc2c([nH]c3ccc(Cl)cc23)C1CN1CCC(F)(F)CC1 (stereo not shown) [Compound 78, 1-(6-chloro-1-1((4,4-difluoropiperidin-1-yl)methyl)-3,4-dihydro-1H-pyrido[3,4-b]indol-2(9H)-yl)-3-cyclohexylpropan-1-one] | 0.1 to 1
CC(C)CC1c2[nH]c3ccc(Cl)cc3c2CCN1C(=O)OCCN1CC(F)(F)C1 (stereo not shown) [Compound 26] | 0.1 to 1
CC(C)CC1c2[nH]c3ccc(Cl)cc3c2CCN1CC(=O)NC1CCCCC1 (stereo not shown) [Compound 79] | 0.1 to 1
CC(C)CC1c2[nH]c3ccc(Cl)cc3c2CCN1C(=O)C1(F)CNC1 (stereo not shown) [Compound 102] | 0.1 to 1
CC(C)CC1c2[nH]c3ccc(Cl)cc3c2CCN1C(=O)OCCN1CC(F)C1 (stereo not shown) [Compound 21] | > 1
CC(C)CC1c2[nH]c3ccc(Cl)cc3c2CCN1C(=O)CCN1CCCC(F)(F)C1 (stereo not shown) [Compound 13] | 0.1 to 1
CC(C)CC1c2[nH]c3ccc(Cl)cc3c2CCN1C(=O)CN1CCC(C(F)(F)F)CC1 (stereo not shown) [Compound 8] | 0.1 to 1
CC(C)CC1c2[nH]c3ccc(Cl)cc3c2CCN1C(=O)C1CN(CC2CC2(F)F)C1 (stereo not shown) [Compound 107] | > 1
CC(C)CC1c2[nH]c3ccc(Cl)cc3c2CCN1C(=O)CCN1CCOCC1 (stereo not shown) [Compound 2] | > 1
CC(C)CC1c2[nH]c3ccc(Cl)cc3c2CCN1C(=O)C1CCN(CCC(F)(F)F)CC1 (stereo not shown) [Compound 50] | 0.1 to 1
CC(C)CC1c2[nH]c3ccc(Cl)cc3c2CCN1S(=O)(=O)CCN1CCC(F)(F)CC1 (stereo not shown) [Compound 36] | > 1
CC(C)CC1c2[nH]c3ccc(Cl)cc3c2CCN1C(=O)Cc1ccccc1 (stereo not shown) [Compound 63] | 0.1 to 1
CC(C)CC1c2[nH]c3ccc(Cl)cc3c2CCN1C(=O)OCCN1CCC(CF)CC1 (stereo not shown) [Compound 24] | > 1
CC(C)CC1c2[nH]c3ccc(Cl)cc3c2CCN1C(=O)COC1CCN(CC(F)F)CC1 (stereo not shown) [Compound 53] | > 1
CC(C)C[C@H]1c2[nH]c3ccc(Cl)cc3c2CCN1C(=O)CCN1CCC(C(F)(F)F)CC1 [Compound 20, (S)-1-(6-chloro-1-isobutyl-3,4-dihydro-1H-pyrido[3,4-b]indol-2(9H)-yl)-3-(4-(trifluoromethyl)piperidin-1-yl)propan-1-one] | 0.1 to 1
CC(C)CC1c2[nH]c3ccc(Cl)cc3c2CCN1C(=O)COc1ccccc1 (stereo not shown) [Compound 71] | 0.1 to 1
CC(C)CC1c2[nH]c3ccc(Cl)cc3c2CCN1c1nc(CN2CCC(F)CC2)co1 (stereo not shown) [Compound 57] | 0.1 to 1
O=C(CCN1CCC(C(F)F)CC1)N1CCc2c([nH]c3ccc(Cl)cc23)C1CC1CCCC1 (stereo not shown) [Compound 31] | 0.1 to 1
CC(C)CC1c2[nH]c3ccc(Cl)cc3c2CCN1C(=O)CCN1CCC(F)(F)C1 (stereo not shown) [Compound 11] | 0.1 to 1
CC(C)CC1c2[nH]c3ccc(Cl)cc3c2CCN1C(=O)CCN1CCCCC12CC2 (stereo not shown) [Compound 44] | 0.1 to 1

SMILES | EC50 [µM]
CC(C)CC1c2[nH]c3ccc(Cl)cc3c2CCN1C(=O)CNCc1ccno1 (stereo not shown) [Compound 90] | > 1
CC(C)CC1c2[nH]c3ccc(Cl)cc3c2CCN1C(=O)c1ccco1 (stereo not shown) [Compound 66] | > 1
CC(C)CC1c2[nH]c3ccc(Cl)cc3c2CCN1C(=O)c1ccncc1 (stereo not shown) [Compound 65] | 0.1 to 1
CCCCN1CC(F)(C(=O)N2CCc3c([nH]c4ccc(Cl)cc34)C2CC(C)C)C1 (stereo not shown) [Compound 106] | < 0.1
CC(C)CC1c2[nH]c3ccc(Cl)cc3c2CCN1C(=O)CC(O)c1ccccc1 (stereo not shown) [Compound 48] | 0.1 to 1
CC(C)CC1c2[nH]c3ccc(Cl)cc3c2CCN1C(=O)CN1CCC(F)(F)C1 (stereo not shown) [Compound 84] | 0.1 to 1
CC(C)CC1c2[nH]c3ccc(Cl)cc3c2CCN1C(=O)CC1CCCO1 (stereo not shown) [Compound 42] | 0.1 to 1
CC(C)CC1c2[nH]c3ccc(Cl)cc3c2CCN1C(=O)OCCN1CCC(F)(F)C1 (stereo not shown) [Compound 18] | 0.1 to 1
CC(C)(C)CC1c2[nH]c3ccc(Cl)cc3c2CCN1C(=O)CCN1CCC(F)CC1 (stereo not shown) [Compound 30] | > 1
CC(C)CC1c2[nH]c3ccc(Cl)cc3c2CCN1C(=O)COC1CCCCC1 (stereo not shown) [Compound 68] | 0.1 to 1
CC(C)CC1c2[nH]c3ccc(Cl)cc3c2CCN1C(=O)C1(C#N)CC1 (stereo not shown) [Compound 25] | > 1
CC(C)C[C@H]1c2[nH]c3ccc(Cl)cc3c2CCN1CCN1CCC(F)(F)CC1 [Compound 110, (S)-6-chloro-2-(2-(4,4-difluoropiperidin-1-yl)ethyl)-1-isobutyl-2,3,4,9-tetrahydro-1H-pyrido[3,4-b]indole] | 0.1 to 1
CC(C)CC1c2[nH]c3ccc(Cl)cc3c2CCN1C(=O)C1CCN(c2ncccn2)CC1 (stereo not shown) [Compound 67] | 0.1 to 1
CC(C)CC1c2[nH]c3ccc(Cl)cc3c2CCN1C(=O)CN1CC[C@H](F)C1 (stereo partly shown) [Compound 49] | > 1
CC(C)CC1c2[nH]c3ccc(Cl)cc3c2CCN1C(=O)CN(C)c1ccccc1 (stereo not shown) [Compound 74] | 0.1 to 1
CC(C)CC1c2[nH]c3ccc(Cl)cc3c2CCN1Cc1ccccn1 (stereo not shown) [Compound 87] | 0.1 to 1
Cc1ccc(C2c3[nH]c4ccc(Cl)cc4c3CCN2C(=O)CCN2CCC(F)(F)CC2)cc1 (stereo not shown) [Compound 4] | 0.1 to 1
CC(C)(C)CC1c2[nH]c3ccc(Cl)cc3c2CCN1C(=O)CCN1CCC(F)(F)CC1 (stereo not shown) [Compound 10] | 0.1 to 1
O=C(CCN1CCC(F)(F)CC1)N1CCc2c([nH]c3ccc(Cl)cc23)C1CC1CCCC1 (stereo not shown) [Compound 9] | 0.1 to 1
CC(C)CC1c2[nH]c3ccc(Cl)cc3c2CCN1C(=O)CNC1CCCCC1 (stereo not shown) [Compound 40] | > 1
CC(C)CC1c2[nH]c3ccc(Cl)cc3c2CCN1C(=O)CCN1CCSCC1 (stereo not shown) [Compound 19] | 0.1 to 1
CC(C)CC1c2[nH]c3ccc(Cl)cc3c2CCN1Cc1ccco1 (stereo not shown) [Compound 88] | 0.1 to 1
CC(C)C[C@H]1c2[nH]c3ccc(Cl)cc3c2CCN1C(=O)CNCCC(F)(F)F [Compound 108, (S)-1-(6-chloro-1-isobutyl-3,4-dihydro-1H-pyrido[3,4-b]indol-2(9H)-yl)-2-(3,3,3-trifluoropropylamino)ethanone] | < 0.1
CC(C)CC1c2[nH]c3ccc(Cl)cc3c2CCN1C(=O)CCN1CCC(C)CC1 (stereo not shown) [Compound 15] | > 1
CC(C)C[C@H]1c2[nH]c3ccc(Br)cc3c2CCN1C(=O)CNC1CC1 [Compound 98, (S)-1-(6-bromo-1-isobutyl-3,4-dihydro-1H-pyrido[3,4-b]indol-2(9H)-yl)-2-(cyclopropylamino)ethanone] | < 0.1
CC(C)CC1c2[nH]c3ccc(Cl)cc3c2CCN1C(=O)OCCN1CCC(F)CC1 (stereo not shown) [Compound 23] | > 1
